Data from patent publication US5260465A, “Inhibitors of farnesyl protein transferase” (Merck & Co., Inc., priority 1991, dated 1993).

How the values were obtained:
[1] = pH-dependent equilibrium / solution form of anhydride (9) and diacid (10), followed by UV; type: physicochemical; conditions: for predominant form in solution (diacid/anhydride equilibrium): in a solution, pH dependent
Description: The equilibrium between diacid (10) and anhydride (9) in a solution is pH dependent. […] However, when basified with dil NaOH, this maximum shifted to λmax 243 run. This shift is clear evidence of opening of the anhydride into the diacid. [drawing 8]
The latter band underwent a hypsochromic shift to 240 run after addition of dil NAOH.

[2] = target: T1, Farnesyl-protein transferase (FTase) from bovine brain (Bos taurus, UniProt P29702+P49355); test: Inhibition of Ras farnesylation in vitro (FTase assay with Ras-CVLS and [3H]FPP); type: biochemical; conditions: for IC50: Ras-CVLS 3.5 μM, 0.25 μM [3H]FPP, partially purified enzyme, compound (9) or (10), under assay conditions open dicarboxylate form
T1 construct: Farnesyl-protein transferase (FTase) from bovine brain was chromatographed on DEAE-Sephacel; from tissue; host or cells: bovine brain, partially purified (DEAE-Sephacel, N-octyl agarose, mono Q)
Description: The intrinsic farnesyl-protein transferase (FTase) activity of representative compounds of this invention was measured by the assay as described below:
Farnesyl-protein transferase (FTase) from bovine brain was chromatographed on DEAE-Sephacel (Pharmacia, 0-0.8M NaCl gradient elution), N-octyl agarose (Sigma, 0-0.6M NaCl gradient elution), and a mono Q HPLC column (Pharmacia, 0-0.3M NaCl gradient). Ras-CVLS (Cys-Val-Leu-Ser) at 3.5 μM, 0.25 μM [^3 H]FPP, and the indicated compounds were incubated with this partially purified enzyme preparation. The FTase inhibition data presented below is a measurement of the ability of the test compound to inhibit Ras farnesylation in vitro.

HMG-CoA reductase = conditions: cited from earlier work
Ras farnesylation = conditions: Hancock et al., Casey et al., Schafer et al.; cited from earlier work

predominant form in solution (diacid/anhydride equilibrium) [1] | reactivity with CH3OH ([1]; methanolic solution) | IC50 [2] [nM] | existence in solution by pH ([1]; in solution) | SMILES | form under assay conditions ([1]; CH3OH-HEPES buffer solution (7:5), pH 7.5) | Ras farnesyl transferase inhibitory activity of the diisopropylethylamine salt ([2]; open diacid (10) trapped as a diisopropylethylamine salt) | inhibition of HMG-CoA reductase (HMG-CoA reductase) | Inhibition of Ras farnesylation in vivo (Ras farnesylation)
predominates when the solution is acidic | reacts slowly with CH3 OH | 110 | – | CCCCCCCC/C=C\CCCCCCC1=C(C)C(=O)OC1=O [Compound (9)] | – | – | – | –
predominates when the solution is basic | – | 110 | exists in solution at pH 7 and above | CCCCCCCC/C=C\CCCCCC/C(C(=O)O)=C(\C)C(=O)O [Compound (10)] | exists substantially in the open dicarboxylate form | without any loss of Ras farnesyl transferase inhibitory activity | – | –
– | – | – | – | CC[C@H](C)C(=O)O[C@H]1CCC=C2C=C[C@H](C)[C@H](CC[C@@H]3C[C@@H](O)CC(=O)O3)[C@H]21 [compactin] | – | – | inhibit HMG-CoA reductase | Inhibition of Ras farnesylation in vivo has been demonstrated
– | – | – | – | CC[C@H](C)C(=O)O[C@H]1C[C@@H](C)C=C2C=C[C@H](C)[C@H](CC[C@@H]3C[C@@H](O)CC(=O)O3)[C@H]21 [lovastatin] | – | – | inhibit HMG-CoA reductase | Inhibition of Ras farnesylation in vivo has been demonstrated
